In US4699926A, “Compounds useful in treating sickle cell anemia” (Merck & Co., Inc., priority 1986, dated 1987):
Structures can show the parent of a compound that is named as a salt.

Columns and labels:
sickle hemoglobin (HbS) = molecular target: T1, sickle hemoglobin (HbS) (Homo sapiens, UniProt P68871+P69905, E7V); assay: Solubility assay (Csat assay): solubility of deoxygenated sickle hemoglobin in the presence of drug; type: biochemical
T1 construct: from tissue
Protocol: One major assay for evaluating antisickling agents involves measuring their effect on increasing the concentration at which sickle hemoglobin forms a gel. This is called the solubility or Csat assay.
The solubility assay (Csat assay) measures the ability of a compound to increase solubility of sickle hemoglobin (HbS).
In order to confirm the effectiveness of these compounds in reducing the effect of sickle cell anemia, tests were performed. The materials were tested according to the assay (Csat) developed by Hofrichter et al. (J. Hofrichter, P.D. Ross and W. A. Eaton Proc. Natl. Acad. Sci. USA, 73 30-35, 1976). This assay involves deoxygenation of concentrated sickle hemoglobin with dithionite in the presence of different concentrations of the drugs being tested Samples were then sealed in quartz epr tubes under anaerobic conditions and spun at about 150,000 × g for about 21/2 hours at about 35° C. in an ultracentrifuge. This procedure pellets the polymerized HbS (sickle hemoglobin) to the bottom of the tubes and the supernatant (soluble HbS) was measured in the laboratory as the cyanmethemoglobin derivative. […] Activity is reported as a ratio of the HbS solubility with the particular drug to HbS solubility with no drug i.e. control. The higher the ratio the greater degree of activity of the drug. The numbers in parenthesis are % increase in the solubility of HbS; again the higher the number, the greater the activity of the drug. The results ofthe compound of Example 9, is shown as a representative example of the compounds of this invention.

HbS = assay: Chromatographic separation: tight covalent binding between HbS and the agent; design: species or system human
[1] = Tests of transport across erythrocyte membranes; type: in vitro ADME, human; conditions: red blood cell membrane

Row | SMILES | solubility ratio compared with other antisickling agents (in words) (sickle hemoglobin (HbS); low concentrations (5 mM), versus dichlorobenzyloxyacetic and p-bromobenzyloxyacetic acids) | covalent binding between the HbS and the therapeutic agent (in words) (HbS) | transport across erythrocyte membranes (in words) [1] | activation at 3000 µM (sickle hemoglobin (HbS); 3 mM, read-out: % increase in Solubility (of HbS)) [%] | fold induction at 3000 µM (sickle hemoglobin (HbS); 3 mM, read-out: Ratio of the HbS Solubility with the Drug Compared to HbS Solubility Without Drug) | activation at 5000 µM (sickle hemoglobin (HbS); 5 mM, read-out: % increase in Solubility (of HbS)) [%] | fold induction at 5000 µM (sickle hemoglobin (HbS); 5 mM, read-out: Ratio of the HbS Solubility with the Drug Compared to HbS Solubility Without Drug) | activation at 7000 µM (sickle hemoglobin (HbS); 7 mM, read-out: % increase in Solubility (of HbS)) [%] | fold induction at 7000 µM (sickle hemoglobin (HbS); 7 mM, read-out: Ratio of the HbS Solubility with the Drug Compared to HbS Solubility Without Drug) | activation at 9000 µM (sickle hemoglobin (HbS); 9 mM, read-out: % increase in Solubility (of HbS)) [%] | fold induction at 9000 µM (sickle hemoglobin (HbS); 9 mM, read-out: Ratio of the HbS Solubility with the Drug Compared to HbS Solubility Without Drug)
1 | C=C(CC)C(=O)c1ccc(OCC(=O)NCC(=O)O)c(Cl)c1Cl [sodium salt of N-{([2,3-dichloro-4-(2-methylenebutyryl)-phenoxy]acetyl)}glycine] | higher solubility ratio than other antisickling agents, such as, dichlorobenzyloxyacetic and p-bromobenzyloxyacetic acids | desired tight covalent binding between the HbS and the therapeutic agent had occurred | confirmed the ability of the agent to cross the red blood cell membrane and react with hemoglobin | – | – | – | – | – | – | – | –
2 | C=C(CC)C(=O)c1ccc(OCC(=O)NCC(=O)O)c(Cl)c1Cl [Example 9, N-{[2,3-Dichloro-4-(2-methylenebutyryl)phenoxy]-acetyl}glycine] | – | – | – | 27 | 1.11 | 36 | 1.15 | 56 | 1.22 | 82 | 1.33
